Tests used:
Assay type in all cases: cell-based, Lactococcus lactis
[1] = tested on: NZ9000NsrFH202AP; test: Growth inhibition (IC50), strain expressing ATP-hydrolysis-deficient NsrFH202AP; conditions: IC50 against NZ9000NsrFH202AP divided by IC50 against NZ9000Cm
Description: (§1) The nsrfp gene from S. agalactiae COH1 was amplified from the chromosomal DNA using two primers (NsrFP_for 5′-[…]-3′ and NsrFP_rev 5′-[…]-3) and ligated into pIL-SV (E. coli–L. lactis shuttle vector) ([Alkhatib et al., 2014b]). The point mutation NsrFH202A was introduced by a standard mutagenesis protocol using the following primers: forward: 5′-[…]-3′; reverse: 5′-[…]-3′. The resulting plasmid was verified by sequencing and transformed into the L. lactis strain NZ9000 for expression ([Holo and Nes, 1989]) and the corresponding strains were termed NZ9000NsrFP and NZ9000NsrFH202AP. An empty vector pIL-SVCm was also transformed into the NZ9000 strain and was used as a control (that excludes any possible effect of induction of the plasmid), and this strain was called NZ9000Cm. The expression of the nsrfp gene is regulated by the TCS NisR/NisK present in the NZ9000 strain genome.
Cells from the different expressing strains were grown overnight in GM17 supplemented with 5 μg/ml chloramphenicol in presence of 1 ng/ml nisin. The diluted cells (final OD584 was 0.1) were incubated with a serial dilution of nisin in a 96-well plate. The total volume in each well was 200 μl, consisting of 50 μl nisin and 150 μl GM17 containing the corresponding L. lactis strain.
(§2) The plate was incubated at 30°C. After 5 h, the optical density was measured at 584 nm via 96-well plate reader BMG. The normalized optical density was plotted against the logarithm of the nisin concentration in order to calculate the IC50 of nisin and the data was evaluated using the following equation (Eq. 1):
y=ODmin+ODmax−ODmin/1+10^(log(IC50)−x) ×p
The ODmax value describes the normalized optical density value where no nisin was added, while the ODmin value corresponds to the normalized optical density of the cells grown in the highest nisin concentrations. The y represents the resulted normalized optical density value and x represents the logarithmic of the nisin concentration added. The IC50 value is the concentration of nisin where the growth of the L. lactis strain is inhibited by 50% ([Abts et al., 2011]).
We determined the IC50 value of nisin against the NZ9000Cm sensitive strain as well as the strain NZ9000NsrFP and NZ9000NsrFH202AP. By dividing these two values the fold of resistance is obtained. […] Dividing these two values results in a fold of resistance of 16.7.

[2] = tested on: NZ9000Cm; test: Growth inhibition (IC50), nisin-sensitive control strain with empty vector; conditions: product of NSR cleavage (last six amino acids cleaved off)
Description: as §1
Cells from the different expressing strains were grown overnight in GM17 supplemented with 5 μg/ml chloramphenicol in presence of 1 ng/ml nisin. […]
as §2, with “1): […]” for “1):”

[3] = tested on: NZ9000NsrFP; test: Growth inhibition (IC50), strain expressing NsrFP; conditions: IC50 against NZ9000NsrFP divided by IC50 against NZ9000Cm
Description: as §1, with “genome. […]” for “genome.”
as §2, with “1): […]” for “1):”
We determined the IC50 value of nisin against the NZ9000Cm sensitive strain as well as the strain NZ9000NsrFP and NZ9000NsrFH202AP. […]

Row | SMILES | Fold of resistance NZ9000NsrFH202AP [1] | Fold lower activity compared with nisin [2] | Fold of resistance NZ9000NsrFP [3]
1 | C=C1NC(=O)[C@H]([C@@H](C)CC)NC(=O)[C@H](NC(=O)/C(=C/C)NC(=O)[C@@H](N)[C@@H](C)CC)CSC[C@@H](C(=O)N[C@H]2C(=O)N3CCC[C@H]3C(=O)NCC(=O)N[C@H](C(=O)N[C@@H](CCCCN)C(=O)N[C@H]3C(=O)NCC(=O)N[C@@H](C)C(=O)N[C@@H](CC(C)C)C(=O)N[C@@H](CCSC)C(=O)NCC(=O)N[C@H](C(=O)N[C@@H](CC(N)=O)C(=O)N[C@@H](CCSC)C(=O)N[C@@H](CCCCN)C(=O)N[C@H]4C(=O)N[C@@H](C)C(=O)N[C@H]5C(=O)N[C@@H](CS[C@H]4C)C(=O)N[C@@H](Cc4c[nH]cn4)C(=O)N[C@H](C(=O)O)CS[C@H]5C)CS[C@H]3C)CS[C@H]2C)NC(=O)[C@H](CC(C)C)NC1=O [Nisin1-28] | 0.4 fold | 32 fold | –
2 | C=C1NC(=O)[C@H]([C@@H](C)CC)NC(=O)[C@H](NC(=O)/C(=C/C)NC(=O)[C@@H](N)[C@@H](C)CC)CSC[C@@H](C(=O)N[C@H]2C(=O)N3CCC[C@H]3C(=O)NCC(=O)N[C@H](C(=O)N[C@@H](CCCCN)C(=O)N[C@H]3C(=O)NCC(=O)N[C@@H](C)C(=O)N[C@@H](CC(C)C)C(=O)N[C@@H](CCSC)C(=O)NCC(=O)N[C@H](C(=O)N[C@@H](CC(N)=O)C(=O)N[C@@H](CCSC)C(=O)N[C@@H](CCCCN)C(=O)O)CS[C@H]3C)CS[C@H]2C)NC(=O)[C@H](CC(C)C)NC1=O [Nisin1-22] | 0.7 fold | – | –
3 | C=C(NC(=O)[C@@H](NC(=O)[C@H](CCCCN)NC(=O)[C@@H](NC(=O)[C@H](CO)NC(=O)[C@@H]1CS[C@@H](C)[C@H]2NC(=O)[C@H](C)NC(=O)[C@H](NC(=O)[C@H](CCCCN)NC(=O)[C@H](Cc3ccc(O)cc3)NC(=O)[C@H](CC(N)=O)NC(=O)[C@@H]3CS[C@@H](C)[C@@H](NC(=O)[C@H](CCCCN)NC(=O)[C@@H]4CS[C@@H](C)[C@@H](NC(=O)[C@@H]5CSC[C@@H](NC(=O)/C(=C/C)NC(=O)[C@@H](N)Cc6ccccc6)C(=O)N[C@@H]([C@@H](C)CC)C(=O)NC(=C)C(=O)N[C@@H](CCSC)C(=O)N5)C(=O)N5CCC[C@H]5C(=O)NCC(=O)N4)C(=O)NCC(=O)N[C@@H](C)C(=O)N[C@@H](CC(C)C)C(=O)N[C@@H](CCSC)C(=O)N/C(=C\C)C(=O)N3)[C@H](C)SC[C@H](NC2=O)C(=O)N[C@@H](Cc2c[nH]cn2)C(=O)N1)[C@@H](C)CC)C(C)C)C(=O)N[C@@H](CCCCN)C(=O)O [Nisin H] | 1.1 fold | – | 12.3 fold
4 | C/C=C(\NC(=O)[C@H](CCCCN)NC(=O)[C@H](C)NC(=O)[C@@H]1CS[C@@H](C)[C@@H](NC(=O)[C@@H]2CSC[C@@H](NC(=O)[C@H](C)NC(=O)[C@@H](N)[C@@H](C)CC)C(=O)N[C@@H](CCCCN)C(=O)N[C@@H](Cc3ccccc3)C(=O)N[C@@H](CC(C)C)C(=O)N2)C(=O)N2CCC[C@H]2C(=O)NCC(=O)N1)C(=O)NCC(=O)N[C@@H]1CSC[C@@H]2NC(=O)[C@H](Cc3ccc(O)cc3)NC(=O)[C@@H](CS/C=C\NC2=O)NC(=O)[C@H](CC(N)=O)NC(=O)[C@H](Cc2ccccc2)NC1=O [Gallidermin] | 0.9 fold | – | 12.5 fold

Source: publication PMC5583591, “The N-terminal Region of Nisin Is Important for the BceAB-Type ABC Transporter NsrFP from Streptococcus agalactiae COH1” (Frontiers in Microbiology, 2017)
